Where two headings read alike, the source gives them in different places.
Experiments:
EmrE [1] = molecular target: T1, EmrE (Escherichia coli, UniProt P23895, S64V); assay: biochemical
EmrE [2] = molecular target: EmrE (Escherichia coli, UniProt P23895); assay: [3H]-TPP+ saturation binding, purified protein in DDM
EmrE [3] = molecular target: EmrE (Escherichia coli, UniProt P23895, N102A); assay: biochemical
EmrE [4] = molecular target: T1, EmrE; assay: biochemical; remark: listed apart in the source
EmrE [5] = molecular target: EmrE (Escherichia coli, UniProt P23895, I101G); assay: biochemical
EmrE [6] = molecular target: EmrE (Escherichia coli, UniProt P23895, M21G); assay: biochemical
EmrE [7] = molecular target: EmrE (Escherichia coli, UniProt P23895, N102V); assay: biochemical
EmrE [8] = molecular target: EmrE (Escherichia coli, UniProt P23895, A59L); assay: biochemical
EmrE [9] = molecular target: EmrE (Escherichia coli, UniProt P23895, G90V); assay: biochemical
[10] = molecular target: the molecule itself; assay: 1H-15N TROSY-HSQC NMR (peak doubling of the asymmetric homodimer)

C[P+](c1ccccc1)(c1ccccc1)c1ccccc1 [MeTPP^+]
Kd (EmrE [1]): 60000 ± 10000 nM

CC[P+](c1ccccc1)(c1ccccc1)c1ccccc1 [EtTPP^+]
Kd (EmrE [1]): 11400 ± 100 nM

c1ccc([P+](c2ccccc2)(c2ccccc2)c2ccccc2)cc1 [TPP^+]
Kd (EmrE [2]): 0.8 ± 0.1 nM | Kd (EmrE [3]): 2.3 ± 0.4 nM | Kd (EmrE [4]): 1 ± 0.6 nM | Kd (EmrE [5]): 2.6 ± 1.3 nM | Kd (EmrE [6]): 4 ± 0.7 nM | Kd (EmrE [7]): 1.2 ± 0.2 nM | Kd (EmrE [8]): 23.4 ± 2.4 nM | Kd (EmrE [9]): 5.3 ± 0.6 nM

B1: wild type EmrE (natural protein)
chain: MNPYIYLGGAILAEVIGTTLMKFSEGFTRLWPSVGTIICYCASFWLLAQTLAYIPTGIAYAIWSGVGIVLISLLSWGFFGQRLDLPAIIGMMLICAGVLIINLLSRSTPH
binding result [10]: binds

B2: EmrE A59L (natural protein)
chain: MNPYIYLGGAILAEVIGTTLMKFSEGFTRLWPSVGTIICYCASFWLLAQTLAYIPTGILYAIWSGVGIVLISLLSWGFFGQRLDLPAIIGMMLICAGVLIINLLSRSTPH
binding result [10]: binds

B3: EmrE I101G (natural protein)
chain: MNPYIYLGGAILAEVIGTTLMKFSEGFTRLWPSVGTIICYCASFWLLAQTLAYIPTGIAYAIWSGVGIVLISLLSWGFFGQRLDLPAIIGMMLICAGVLIGNLLSRSTPH
binding result [10]: binds

B4: S64V-EmrE (natural protein)
chain: MNPYIYLGGAILAEVIGTTLMKFSEGFTRLWPSVGTIICYCASFWLLAQTLAYIPTGIAYAIWVGVGIVLISLLSWGFFGQRLDLPAIIGMMLICAGVLIINLLSRSTPH
binding result [10]: binds

B5: EmrE N102A (natural protein)
chain: MNPYIYLGGAILAEVIGTTLMKFSEGFTRLWPSVGTIICYCASFWLLAQTLAYIPTGIAYAIWSGVGIVLISLLSWGFFGQRLDLPAIIGMMLICAGVLIIALLSRSTPH
binding result [10]: binds

B6: EmrE N102V (natural protein)
chain: MNPYIYLGGAILAEVIGTTLMKFSEGFTRLWPSVGTIICYCASFWLLAQTLAYIPTGIAYAIWSGVGIVLISLLSWGFFGQRLDLPAIIGMMLICAGVLIIVLLSRSTPH
binding result [10]: binds

B7: EmrE M21G (natural protein)
chain: MNPYIYLGGAILAEVIGTTLGKFSEGFTRLWPSVGTIICYCASFWLLAQTLAYIPTGIAYAIWSGVGIVLISLLSWGFFGQRLDLPAIIGMMLICAGVLIINLLSRSTPH
binding result [10]: binds
